Measured values taken from patent publication US20240254218A1 (ICAHN SCHOOL OF MEDICINE AT MOUNT SINAI, priority 2021, published 2024).

Tests used:
FSH receptor (FSHR) = target: T1, FSH receptor (FSHR) (Homo sapiens, UniProt P23945); conditions: cited from earlier work
T1 sequence (P23945 18-695): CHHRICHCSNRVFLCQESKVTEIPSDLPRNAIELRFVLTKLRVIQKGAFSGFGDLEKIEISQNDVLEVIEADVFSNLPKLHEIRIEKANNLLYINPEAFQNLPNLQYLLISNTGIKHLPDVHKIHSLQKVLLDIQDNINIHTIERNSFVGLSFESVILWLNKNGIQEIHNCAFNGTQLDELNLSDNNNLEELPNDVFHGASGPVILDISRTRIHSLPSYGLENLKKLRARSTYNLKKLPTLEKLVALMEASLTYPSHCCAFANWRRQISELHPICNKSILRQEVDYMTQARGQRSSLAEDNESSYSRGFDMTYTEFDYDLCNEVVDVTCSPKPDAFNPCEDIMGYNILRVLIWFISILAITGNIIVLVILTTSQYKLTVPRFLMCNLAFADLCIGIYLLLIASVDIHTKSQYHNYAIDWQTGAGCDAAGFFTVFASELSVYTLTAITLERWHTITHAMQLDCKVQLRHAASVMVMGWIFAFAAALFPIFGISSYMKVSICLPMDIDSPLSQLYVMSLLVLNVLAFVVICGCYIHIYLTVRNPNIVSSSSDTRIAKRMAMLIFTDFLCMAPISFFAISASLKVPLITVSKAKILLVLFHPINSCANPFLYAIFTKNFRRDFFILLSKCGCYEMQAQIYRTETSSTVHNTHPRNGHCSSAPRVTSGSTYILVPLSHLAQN

FSHR signaling = test: Pathway inhibitors on FSH-induced signalling in SH-SY5Y cells; format: cell-based, human; conditions: FSH 30 ng/ml 30 minutes; for FSH-induced SRPK2 phosphorylation/activation / FSH-induced AEP activation (cleavage and phosphorylation) / FSH-induced C/EBPβ activation/expression: AKTi-1/2 10 μM; for FSH-induced SRPK2 phosphorylation/activation / FSH-induced AEP activation (cleavage and phosphorylation) / FSH-induced C/EBPβ activation/expression / FSH-induced AKT phosphorylation: PD98059 10 μM; for FSH-induced AEP activation (cleavage and phosphorylation) / FSH-induced C/EBPβ activation/expression / FSH-induced AKT phosphorylation: PTX 50 ng/ml
From the text: Of note, MAPK-induced phosphorylation of residue T188 of C/EBPβ regulates its transcriptional activity (Ramji, D. P. & Foka, P. Biochem J 365, 561-575, (2002)). Likewise, AKT phosphorylates SRPK2, which, in turn, activates AEP by phosphorylating residue S266. […] Pertussis toxin inhibited FSH-induced C/EBPβ and AEP activation and AKT phosphorylation (FIG. 2E). […] In contrast, while the MEK1 inhibitor PD98059 blocked FSH-induced C/EBPβ, AEP and SRPK2 activation, AKT was unaffected (FIG. 2E).

Compound | mode of action on the FSH receptor (FSHR) (FSH receptor (FSHR)) | FSH-induced SRPK2 phosphorylation/activation (FSHR signaling) | FSH-induced AEP activation (cleavage and phosphorylation) (FSHR signaling) | FSH-induced C/EBPβ activation/expression (FSHR signaling) | FSH-induced AKT phosphorylation (FSHR signaling) | effect on any signaling molecule (FSHR signaling; SQ22536 100 μM)
COc1ccc(N=Nc2c(S(=O)(=O)[O-])cc3cc(Nc4nc(Cl)nc(N(CCC(N)=O)CCC(N)=O)n4)ccc3c2O)cc1.[Na+] [7-[4-[Bis-(2-carbamoyl-ethyl)-amino]-6-chloro-(1,3,5)-triazin-2-ylamino)-4-hydroxy-3-(4-methoxy-phenylazo)-naphthalene]-2-sulfonic acid, sodium salt] | selective, noncompetitive inhibitor | – | – | – | – | –
O=c1[nH]c2ccccc2n1C1CCN(Cc2ccc(-c3nc4cc5nc[nH]c5cc4nc3-c3ccccc3)cc2)CC1 [AKTi-1/2] | – | attenuated | attenuated | attenuated | – | –
COc1cccc(-c2cc(=O)c3ccccc3o2)c1N [PD98059] | – | blocked | blocked | blocked | unaffected | –
Nc1ncnc2c1ncn2C1CCCO1 (stereo not drawn) [SQ22536] | – | – | – | – | – | Absence of an effect
pertussis toxin | – | – | inhibited | inhibited | inhibited | –
